# In paper PMC6019134, “1,2,6-Thiadiazinones as Novel Narrow Spectrum Calcium/Calmodulin-Dependent Protein Kinase Kinase 2 (CaMKK2) Inhibitors” (Molecules : A Journal of Synthetic Chemistry and Natural …, 2018):
# “And” between values parts separate entries of the source, which are not always exact repeats. Equal values may be shown once.
# What was measured:
# [1] = target: T1, CAMKK2 kinase domain (132–470) (Homo sapiens, UniProt Q96RR4); assay: CaMKK2B TR-FRET tracer displacement assay; assay type: binding; settings: for IC50 / FRET (IC50): CaMKK2, displacement of tracer 236, average of 2 experiments; for increase in potency over compound 2: CaMKK2 FRET IC50 relative to compound 2
# T1 construct: CAMKK2 kinase domain (132–470) was cloned in a pNIC-Bio2 vector; 10xHis tag followed by a TEV site (N, cleaved yes); made in house; host or cells: E. coli BL21(DE3)-R3-BirA
# T1 sequence (Q96RR4 132-470): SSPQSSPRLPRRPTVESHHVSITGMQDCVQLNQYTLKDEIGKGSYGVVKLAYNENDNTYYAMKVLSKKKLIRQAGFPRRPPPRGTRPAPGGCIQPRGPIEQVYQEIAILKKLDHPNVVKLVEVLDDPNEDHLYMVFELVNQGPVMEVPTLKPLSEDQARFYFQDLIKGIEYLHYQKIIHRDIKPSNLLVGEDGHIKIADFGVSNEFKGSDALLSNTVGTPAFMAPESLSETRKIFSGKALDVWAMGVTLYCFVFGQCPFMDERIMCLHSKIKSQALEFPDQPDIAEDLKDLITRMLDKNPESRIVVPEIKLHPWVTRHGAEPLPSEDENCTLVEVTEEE
# Text: To more accurately determine the relative changes in potency of the TDZ analogues and to enable measurement of accurate IC50^’s, we developed a Time-Resolved Fluorescence Resonance Energy Transfer (TR-FRET) assay. The TR-FRET tracer displacement assays were generated using a protocol derived from the Lanthascreen binding assays (ThermoFisher Scientific, Waltham, MA, USA) [21].
# [2] = Chemical stability of the dianilinothiadiazinone core (TLC); assay type: physicochemical; settings: 48 h; neutral, acidic (HCl 2 M) or pH 9 aqueous conditions, BuNH2, PhNH2, PhSH, DDQ, Sn
# Protocol: After the synthesis of the desired dianilino-TDZs (1–5), the stability of dianilinothiadiazinone in biological systems was assessed: 3,5-bis(phenylamino)-4H-1,2,6-thiadiazin-4-one (9) was subjected to neutral, acidic or slightly basic aqueous conditions (H2O/DMSO 50:50, THF/HCl 2 M 50:50 or THF/H2O 50:50 at pH 9 with a carbonate buffer), presence of amine or thiol nucleophiles (BuNH2 1 equiv., PhNH2 1 equiv., PhSH 1 equiv.), oxidizing [2,3-dichloro-5,6-dicyano-1,4-benzoquinone (DDQ) 2 equiv.] and reducing conditions (Sn, 2 equiv.).
# [3] = target: T2, human CaMKK2 (residues 50–588) (Homo sapiens, UniProt Q96RR4); assay: CaMKK2 enzyme assay ([γ-32P]-ATP, CaMKKtide peptide); assay type: biochemical; settings: for IC50: 50 μM ATP, 7 concentrations, mean of 2 experiments;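 on all read-outs here: radiometric kinase assay: phosphate transfer from [γ-32P]-ATP to synthetic peptide substrate, 10 min reaction at 30 °C, peptide-bound radioactivity captured on P81 paper and measured by scintillation counting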
# T2 construct: recombinant bacterial expressed human CaMKK2 (residues 50–588); made in house
# Protocol: CaMKK2 activity was measured by determining the rate of transfer of radiolabeled phosphate from [γ-^32P]-ATP to a synthetic peptide substrate [22].
# A standard 30 μL assay, 1 ng of recombinant bacterial expressed human CaMKK2 (residues 50–588) was added to assay buffer (50 mM HEPES [pH 7.4], 1 mM DTT, 0.02% (v/v) Brij-35) containing 200 μM CaMKKtide peptide substrate, 50 μM CaCl2, 1 μM calmodulin (Sigma-Aldrich Corp., St. Louis, MO, USA), 50 μM [γ-^32P]-ATP (Perkin Elmer) and 5 mM MgCl2, in the presence and absence of different concentrations of small-molecule inhibitors. Reactions were incubated for 10 min at 30 °C, after which they were terminated by spotting 15 μL onto P81 phosphocellulose paper (Whatman, GE Healthcare, Chicago, IL, USA) and washing extensively in 1% phosphoric acid. Radioactivity was quantified by scintillation counting.
# [4] = system: kinases including ERK8, MNK1 and PIM3; parameters: method as in PMID 17519230, PMID 12540834; settings: cited from earlier work
# [5] = system: arylhydrocarbon receptor (AhR); parameters: method as in PMID 18755850; settings: cited from earlier work
# [6] = parameters: method as in PMID 17519230, PMID 12540834; settings: cited from earlier work
Compound,IC50 [1] [µM],Enzyme assay raw data (0 μM drug = 100.00) ([3]; [drug] 0.001 μM),Enzyme assay raw data (0 μM drug = 100.00) ([3]; [drug] 0.01 μM),Enzyme assay raw data (0 μM drug = 100.00) ([3]; [drug] 0.1 μM),Enzyme assay raw data (0 μM drug = 100.00) ([3]; [drug] 1 μM),Enzyme assay raw data (0 μM drug = 100.00) ([3]; [drug] 10 μM),Enzyme assay raw data (0 μM drug = 100.00) ([3]; [drug] 100 μM),melting point,further results
"4-({5-[(3-Hydroxy-4-methylphenyl)amino]-4-oxo-4H-1,2,6-thiadiazin-3-yl}(oxazol-4-ylmethyl)amino)-benzamide [Compound 16]",> 50,,,,,,,,
"O=c1c(Nc2ccccc2)nsnc1Nc1ccccc1 [Compound 9, 3,5-bis(phenylamino)-4H-1,2,6-thiadiazin-4-one]",,,,,,,,,stability (by TLC) [2]: stable
"Cc1ccc(Nc2nsnc(Nc3ccc(-c4ncc[nH]4)cc3)c2=O)cc1O [Compound 11, 3-{[4-(1H-Imidazol-2-yl)phenyl]amino}-5-[(3-hydroxy-4-methylphenyl)amino]-4H-1,2,6-thiadiazin-4-one]",3.2,98.56,93.09,84.85,79.37,42.11,1.23,,IC50 [3]: 6.51 µM and 6.5 µM; increase in potency over compound 2 [1]: > 15 fold
"Cc1ccc(Nc2nsnc(Nc3ccc(C(=O)O)cc3)c2=O)cc1O [Compound 12, 4-({5-[(3-Hydroxy-4-methylphenyl)amino]-4-oxo-4H-1,2,6-thiadiazin-3-yl}amino)benzoic acid]",10.5,102.38,95.03,89.54,79.70,28.43,0.83,,IC50 [3]: 4.09 µM and 4.1 µM; increase in potency over compound 2 [1]: > 5 fold
"Cc1ccc(Nc2nsnc(Nc3ccc(C#N)cc3)c2=O)cc1O [Compound 15, 4-({5-[(3-Hydroxy-4-methylphenyl)amino]-4-oxo-4H-1,2,6-thiadiazin-3-yl}amino)benzonitrile]",> 50,,,,,,,280 °C (dec.),
"Cc1ccc(Nc2nsnc(-c3ccc(C(=O)O)c(C4CCCC4)c3)c2=O)cc1O [Compound 19, 2-Cyclopentyl-4-{5-[(3-hydroxy-4-methylphenyl)amino]-4-oxo-4H-1,2,6-thiadiazin-3-yl}-benzoic acid]",38,,,,,,,277 to 278 °C,
"O=C(O)c1ccc2c3c1cccc3c(=O)n1c3ccccc3nc21 [STO-609, 7-oxo-7H-benzimidazo[2,1-a]benz[de]isoquinoline-3-carboxylic acid, reference compound]",,88.33,69.88,42.21,4.64,1.89,0.07,,off-target kinome profile [4]: unfavorable off-target kinome profile; activity on arylhydrocarbon receptor (AhR) [5]: agonist; solubility [6]: poor solubility

# Continued, in another order:
IC50 [1] [µM],Enzyme assay raw data (0 μM drug = 100.00) ([3]; [drug] 0.001 μM),Enzyme assay raw data (0 μM drug = 100.00) ([3]; [drug] 0.01 μM),Enzyme assay raw data (0 μM drug = 100.00) ([3]; [drug] 0.1 μM),Enzyme assay raw data (0 μM drug = 100.00) ([3]; [drug] 1 μM),Enzyme assay raw data (0 μM drug = 100.00) ([3]; [drug] 10 μM),Enzyme assay raw data (0 μM drug = 100.00) ([3]; [drug] 100 μM),melting point,Compound,further results
7.8,102.30,98.48,91.02,85.36,52.53,2.19,,"Cc1ccc(Nc2nsnc(Nc3ccccc3C(N)=O)c2=O)cc1O [Compound 10, 2-({5-[(3-Hydroxy-4-methylphenyl)amino]-4-oxo-4H-1,2,6-thiadiazin-3-yl}amino)benzamide]",IC50 [3]: 11.9 µM; increase in potency over compound 2 [1]: > 8 fold
43,,,,,,,229 to 230 °C,"Cc1ccc(Nc2nsnc(Nc3ccccc3C#N)c2=O)cc1O [Compound 13, 2-({5-[(3-Hydroxy-4-methylphenyl)amino]-4-oxo-4H-1,2,6-thiadiazin-3-yl}amino)benzonitrile]",
> 50,,,,,,,258 to 259 °C,"Cc1ccc(Nc2nsnc(Nc3cccc(C#N)c3)c2=O)cc1O [Compound 14, 3-({5-[(3-Hydroxy-4-methylphenyl)amino]-4-oxo-4H-1,2,6-thiadiazin-3-yl}amino)benzonitrile]",
> 50,,,,,,,,"Cc1ccc(Nc2nsnc(Nc3ccccc3CO)c2=O)cc1O [Compound 17, 3-[(3-Hydroxy-4-methylphenyl)amino]-5-{[2-(hydroxymethyl)phenyl]amino}-4H-1,2,6-thiadiazin-4-one]",FRET (IC50) [1]: effectively inactive
> 50,,,,,,,,"Cc1ccc(Nc2nsnc(Nc3cccc(C(F)(F)F)c3CO)c2=O)cc1O [Compound 18, 3-[(3-Hydroxy-4-methylphenyl)amino]-5-{[2-(hydroxymethyl)-3-(trifluoromethyl)phenyl]amino}-4H-1,2,6-thiadiazin-4-one]",FRET (IC50) [1]: effectively inactive
